Earlier results as cited in patent publication US12171237B2, “Insect repelling compositions and methods of manufacture thereof” (priority 2019, dated 2024).
“Also recorded” adds a separate entry of the source. Where two headings read alike, the source gives them in different places.

Columns and labels:
[1] = system: female Ae. aegypti; settings: Human-bait assay
[2] = system: female An. gambiae
[3] = system: female Cx. pipiens pallens
[4] = system: Cx. pipiens pallens, Cx. pipiens quinquefasciatus
[5] = system: female Ae. albopictus; settings: spatial repellent, 0.25 μg·cm^−2, after 48 h exposure
[6] = system: Ae. albopictus; settings: 1 h, 1.92 μg·cm^−2
[7] = system: Ae. aegypti; settings: 1 h, 1.92 μg·cm^−2
[8] = system: Mosquito; settings: d-α-pinene

SMILES | repellency ([1]; 1.4 mg·cm^−2) | repellency (‡) [6] [%] | repellency (†) [7] [%] | further results
C=CC(C)(O)CCC=C(C)C (racemic) [Linalool] | ^a1.4 mg (±)-linalool · cm^−2 = 67% repellency |  |  | 
CC(C)=CCCC(C)CCO (centres unmarked) [Citronellol] |  |  |  | Repellency (in words) [2]: repellent component; also recorded: feeding deterrent/repellent, spatial repellent/inhibitor
C=CCc1ccc(O)c(OC)c1 [Eugenol] |  |  |  | Repellency (in words) [3]: high repellency
CC(C)=CCC/C(C)=C/C=O [Geranial] |  |  |  | blood-sucking by mosquitoes reduced by ([4]; at 0.2 mg·cm^−2, after 1 h): 10%; blood-sucking by mosquitoes reduced by ([4]; at 0.2 mg·cm^−2, after 2 h): 15%; blood-sucking by mosquitoes reduced by ([4]; at 0.2 mg·cm^−2, after 3 h): 18%
CC(C)=CCC/C(C)=C/CO [Geraniol] |  |  |  | (reversible) inhibition of host-seeking [5]: spatial repellent: 0.25 μg · cm^−2 ca. 100% (reversible)
CCCCCCCC/C=C\CCCCCCCC(=O)O [Oleic acid] |  |  |  | repellency ([1]; 0.4 mg·cm^−2, after 1 h): 0.4 mg · cm^−2 = 52% repellency after 1 h^a
CC1=CCC(O)(C(C)C)CC1 (centres unmarked) [Terpinen-4-ol] | ^a1.4 mg · cm^−2 = 83% repellency | 85 | 92 | 
CC1=CCC2CC1C2(C)C (stereo not drawn) [α-Pinene] |  |  |  | protection [8]: d-α-pinene , 2 h protection
CC1=CC=C(C(C)C)CC1 [α-Terpinene] | ^a1.4 mg · cm^−2 = 15% repellency | 55 | 68 | 
CC1=CCC(C(C)C)=CC1 [γ-Terpinene] |  | 72 | 60 | 
